Values joined by “and” are separate entries in the source; they are usually repeats but may differ in a detail not shown here. Identical values can stand only once. Counter-ions that a name gives are not always drawn. Like-named read-outs stand apart in the source and are kept apart here.
Key:
[1] = target: T1, cloned human μ opioid receptor (Homo sapiens, UniProt P35372); assay: Receptor binding, [3H]diprenorphine displacement, mu opioid receptor; conditions: for Ki: [3H]diprenorphine, cloned human mu opioid receptor; for DOR/MOR Ratio: ratio of DOR Ki to MOR Ki
T1 construct: expressed in transfected cells

[2] = system: morphine-slowed gastrointestinal transit (GIT); assay: Mouse Gastrointestinal Transit (GIT) Assay, antagonism of the anti-transit effect of morphine; format: in vivo, mice; conditions: for recovery of the pre-opioid treatment efficacy of GIT: one hour after a 3 mg/kg dose, morphine 3 mg/kg s.c.
Protocol: Male Swiss-Webster mice (25-30 g) obtained from Ace Animals (Boyertown, Pa.) were used for all experiments. Mice were housed 4/cage in polycarbonate cages with food and water available ad libitum. Mice were on a 12 hours light:dark schedule with lights on at 6:30 a.m. All experiments were performed during the light cycle. Mice were fasted the night before the experiment, with water available ad libitum.
Compounds were administered in a volume of 0.1 ml/10 g of body weight. Morphine (3 mg/kg) or vehicle (0.9% saline) was administered s.c. 35 min to induce slowed GIT, prior to determination of GIT. Ten minutes after the morphine treatment, mice were administered 0.2 ml of a charcoal meal orally. The charcoal meal consisted of a slurry of charcoal, flour, and water in the following ratio (1:2:8, w:w:v). Twenty-five minutes after receiving the charcoal meal, the mice were euthanized with CO2 and GIT was determined.
GIT is expressed as % GIT by the following formula: […]
For each test agent, a value for % Antagonism (% A) was determined for the 2 and 6 hr antagonist pretreatment. Using the mean % GIT for each treatment group, % A was calculated using the following formula: […]

[3] = target: T2, cloned human δ opioid receptor (Homo sapiens, UniProt P41143); assay: Receptor binding, [3H]diprenorphine displacement, delta opioid receptor
T2 construct: expressed in transfected cells

[4] = Dog PK; format: in vivo; conditions: for AUC0-t: 6 mg/kg, individual dogs; for bioavailability: single PO dose of 6 mg/kg, read-out: oral bioavailability (F); for AUC: mean of three dogs
Protocol: The PO dose formulations were prepared on the day of dosing by dissolving 33.16 mg of test material in 60 mL of sterile water to achieve a concentration of 0.5526 mg/mL total compound (0.5 mg/mL test compound). The dosing solution was vortexed to ensure homogeneity and dissolution.
The dose formulation was administered via oral gavage per facility SOPs. Each dog received a single PO dose of 6 mg/kg.
(§1) All blood samples were collected from a peripheral vessel. Approximately 0.3 mL blood was collected at each time point. All blood samples were placed on wet ice until processed for plasma.
Blood samples were processed for plasma by centrifugation at approximately 5° C. Plasma samples were stored in polypropylene tubes, quick frozen over dry ice and kept at −70±10° C. until LC/MSMS analysis.
(§2) Plasma concentrations were determined by high performance liquid chromatography with tandem mass spectrometric detection (LC/MS/MS) after protein precipitation.
(§3) Plasma concentration versus time data was analyzed by non-compartmental approaches using the WinNonlin software program (version 5.0.1, Pharsight, Mountain View, Calif.).

[5] = Primate PK; format: in vivo, monkey; conditions: for AUC0-t / Cmax: 1 mg/kg; for bioavailability: single PO dose of 1 mg/kg, read-out: oral bioavailability (F)
Protocol: The dose formulations were prepared on the day of dosing by dissolving 33.16 mg of test material in 60 mL of sterile water to achieve a concentration of 0.5526 mg/mL total compound (0.5 mg/mL test compound). The dosing solution was vortexed to ensure homogeneity and dissolution.
The dose formulation was administered via oral gavage per facility SOPs. Each monkey received a single PO dose of 1 mg/kg as a 0.5% MC suspension.
as §1
Blood samples were processed for plasma by centrifugation at approximately 5° C. Plasma samples were be stored in polypropylene tubes, quick frozen over dry ice and kept at −70±10° C. until LC/MSMS analysis.
as §2, §3

[6] = Rat PK; format: in vivo; conditions: rats; for bioavailability: male, Sprague-Dawley, rat, plasma, read-out: oral bioavailability (F)
Protocol: Jugular vein cannulated (JVC) male Sprague-Dawley (SD) rats (Charles River, Raleigh, N.C.) were housed individually in polycarbonate cages on alpha-dri bedding in an environmentally controlled room with a 12 hour light-dark cycle. Rats were allowed to acclimate for 3-5 days prior to the study. Animals were fasted overnight prior to drug administration and were fed after the 4 h blood collection.
The suspension used for PO administration was prepared at a nominal concentration of 2 mg/mL of test agent in 0.5% methylcellulose with 0.1% Tween®80.
Two groups of three JVC rats each received a single PO dose of 10 mg/kg. The PO dose was administered by oral gavage in a dosing volume of 5 mL/kg. Blood samples (0.6 mL) were collected via jugular vein cannula at predose, 15 and 30 minutes and 1, 2, 4, 6, 8 and 24 h postdose in EDTA-containing tubes. Plasma was obtained by centrifugation at 3000 rpm for 15 minutes. The samples were stored at −20° C. until analysis.
Plasma aliquots were deproteinized with internal standard solution in acetonitrile. The samples were vortexed, centrifuged and an aliquot of the supernatant was mixed with water. The diluted aliquot was then analyzed.
as §2
Model-independent analyses were performed to evaluate the pharmacokinetics. The area under the concentration-time curve (AUC) and the area under the first moment curve (AUMC) were calculated from zero to 6 or 8 hours post-dose using the linear trapezoidal method with extrapolation to infinity. The terminal elimination rate constant (kel) and half-life (t1/2) were calculated by linear least-squares regression of log-transformed concentration-time data. Systemic plasma clearance (CLs) was computed from Dose/AUC. Volume of distribution at steady state (Vdss) was calculated from Dose·AUMC/AUC^2. WinNonlin® Professional software (Pharsight Corporation) was used to generate all pharmacokinetic data.

[7] = target: T3, cloned human κ opioid receptor (Homo sapiens, UniProt P41145); assay: Receptor binding, [3H]diprenorphine displacement, kappa opioid receptor
T3 construct: expressed in transfected cells

[8] = individual monkeys, PO 1 mg/kg, lithium salt
[9] = [3H]diprenorphine, cloned human kappa opioid receptor, read-out: KOR Ki

T2 sequence (P41143 whole entry): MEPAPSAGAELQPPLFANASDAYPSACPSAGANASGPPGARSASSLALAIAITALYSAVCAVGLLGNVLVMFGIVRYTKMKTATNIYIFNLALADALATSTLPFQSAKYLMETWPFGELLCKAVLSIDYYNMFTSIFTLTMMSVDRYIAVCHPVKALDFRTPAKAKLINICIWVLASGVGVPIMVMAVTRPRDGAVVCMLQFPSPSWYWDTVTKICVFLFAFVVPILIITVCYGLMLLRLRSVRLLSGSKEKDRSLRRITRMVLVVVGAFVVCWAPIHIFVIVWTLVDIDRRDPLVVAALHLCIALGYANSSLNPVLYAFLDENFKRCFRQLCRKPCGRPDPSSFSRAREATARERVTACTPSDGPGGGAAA
T3 sequence (P41145 whole entry): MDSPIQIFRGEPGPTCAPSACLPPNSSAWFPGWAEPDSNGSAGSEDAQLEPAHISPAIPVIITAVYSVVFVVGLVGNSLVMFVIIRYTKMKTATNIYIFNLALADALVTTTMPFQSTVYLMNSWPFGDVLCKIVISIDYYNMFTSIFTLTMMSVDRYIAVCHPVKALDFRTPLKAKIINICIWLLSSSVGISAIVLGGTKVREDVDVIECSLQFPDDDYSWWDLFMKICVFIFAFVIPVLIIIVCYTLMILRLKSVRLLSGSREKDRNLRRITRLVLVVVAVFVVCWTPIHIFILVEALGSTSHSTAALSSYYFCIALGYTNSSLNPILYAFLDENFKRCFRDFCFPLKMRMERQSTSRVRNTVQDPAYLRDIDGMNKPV
T1 sequence (P35372 whole entry): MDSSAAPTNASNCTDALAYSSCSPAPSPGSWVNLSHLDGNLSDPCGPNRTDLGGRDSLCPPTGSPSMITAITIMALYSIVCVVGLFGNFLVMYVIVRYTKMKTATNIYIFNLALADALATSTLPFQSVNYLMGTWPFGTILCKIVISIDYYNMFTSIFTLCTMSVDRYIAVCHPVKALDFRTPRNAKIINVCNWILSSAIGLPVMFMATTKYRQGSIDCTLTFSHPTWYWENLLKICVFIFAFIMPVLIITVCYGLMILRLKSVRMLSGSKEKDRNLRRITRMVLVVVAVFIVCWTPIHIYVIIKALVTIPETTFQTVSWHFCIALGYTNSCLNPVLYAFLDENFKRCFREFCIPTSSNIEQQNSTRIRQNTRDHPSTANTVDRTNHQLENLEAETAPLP

With `C[C@H]1CN(C[C@H](Cc2ccccc2)C(=O)[O-])CC[C@@]1(C)c1cccc(C(N)=O)c1.[Li+]` [Example 1, (S)-2-benzyl-3-((3R,4R)-4-(3-carbamoylphenyl)-3,4-dimethylpiperidin-1-yl)propanoic acid, lithium salt] the Ki ([1]; MOR Ki) was 11.2 nM, the “DOR/MOR Ratio” value [1] was 30 and the “AUC values (h * percent antagonism (0-6 h))” value ([2]; mice, 3 mg/kg orally, 0-6 h) was 408.8 h * percent antagonism. For the same compound, the “recovery of the pre-opioid treatment efficacy of GIT” value ([2]; mice) was about 90%, the “AUC value (GIT antagonism) times greater than that of Example C-2” value ([2]; mouse, in vivo) was 2.1 times and the Ki ([3]; DOR Ki) was 340 nM. It also gave an AUC0-t ([4]; dog, in vivo, po, PO 6 mg/kg, read-out: AUC0-t) of 183 ng·h/mL, a bioavailability ([4]; dog, in vivo, dogs) of 30% and an AUC ([4]; dog, in vivo, PO 6 mg/kg) of 259 ± 81 ng·h/mL. The “improvement in the mean AUC value as compared to Example C-3” value ([4]; dogs, PO 6 mg/kg) was “approximately 4 fold”, the “increase in mean concentration in plasma as compared to C-3” value ([4]; dogs, PO 6 mg/kg) was “approximately 3 fold” and the AUC0-t ([4]; PO 6 mg/kg, lithium salt) was 250 ng·h/mL and 344 ng·h/mL. The AUC0-t [5, 8] was 87 ng·h/mL and 132 ng·h/mL, the Cmax [5, 8] was 29.5 ng/mL and 20.8 ng/mL and 44.6 ng/mL and the AUC0-t ([5]; monkey, in vivo, po, individual monkeys, PO 1 mg/kg, read-out: AUC0-t) was 103 ng·h/mL. The Cmax ([5]; monkey, in vivo, po, mean of three monkeys, PO 1 mg/kg, read-out: Mean Cmax ± SD) was 32 ± 12 ng/mL, the Cmax ([5]; monkey, in vivo, po, monkeys, PO 1 mg/kg, mean ± SD, text of b284, read-out: Cmax) was 32 ± 12 ng/mL and the bioavailability ([5]; monkey, in vivo, monkeys) was 10%. The “fold higher maximum plasma concentration (Cmax) as compared to Example C-3” value ([5]; monkeys, PO 1 mg/kg) was 18.3 fold.

In the case of `C[C@H]1CN(C[C@H](Cc2ccccc2)C(=O)[O-])CC[C@@]1(C)c1cccc(C(N)=O)c1.[Na+]` [Example 2, (S)-2-benzyl-3-((3R,4R)-4-(3-carbamoylphenyl)-3,4-dimethylpiperidin-1-yl)propanoic acid, sodium salt], the Ki ([1]; MOR Ki) is reported as 17.3 nM, the “DOR/MOR Ratio” value [1] is reported as 18 and the Ki ([3]; DOR Ki) is reported as 308 nM. It also gave a bioavailability ([6]; single PO dose of 10 mg/kg) of 11%.

With `C[C@H]1CN(C[C@H](Cc2ccccc2)C(=O)O)CC[C@@]1(C)c1cccc(C(N)=O)c1.O=C(O)C(F)(F)F` [Example 3, (S)-2-benzyl-3-((3R,4R)-4-(3-carbamoylphenyl)-3,4-dimethylpiperidin-1-yl)propanoic acid, trifluoroacetate salt] the Ki ([1]; MOR Ki) was 12.4 nM, the “DOR/MOR Ratio” value [1] was 32 and the Ki ([3]; DOR Ki) was 397 nM. For the same compound, the bioavailability ([6]; single PO dose of 10 mg/kg) was 8% and the “improvement in oral bioavailability as compared to Example C-2” value ([6]; PO 10 mg/kg) was “approximately 8 fold”.

For `C[C@H]1CN(C[C@H](Cc2ccccc2)C(=O)O)CC[C@@]1(C)c1cccc(C(N)=O)c1` [Example 4, (S)-2-Benzyl-3-((3R,4R)-4-(3-carbamoylphenyl)-3,4-dimethylpiperidin-1-yl)propanoic acid], the Ki ([1]; MOR Ki) was 14 nM, the “DOR/MOR Ratio” value [1] was 33 and the Ki ([3]; DOR Ki) was 460 nM.

For `C[C@H]1CN(C[C@H](Cc2ccccc2)C(=O)O)CC[C@@]1(C)c1cccc(C(N)=O)c1` [Example 5, (S)-2-benzyl-3-((3R,4R)-4-(3-carbamoylphenyl)-3,4-dimethylpiperidin-1-yl)propanoic acid, oxalic acid salt], the Ki ([1]; MOR Ki) was 16.9 nM, the Ki [7] was over 10000 nM and the Ki ([3]; DOR Ki) was 310 nM.

Compound `C[C@H]1CN(C[C@H](Cc2ccccc2)C(=O)O)CC[C@@]1(C)c1cccc(C(N)=O)c1` [Example 6, (S)-2-benzyl-3-((3R,4R)-4-(3-carbamoylphenyl)-3,4-dimethylpiperidin-1-yl)propanoic acid, succinic acid salt] has a Ki ([1]; MOR Ki) of 18.1 nM and a Ki ([3]; DOR Ki) of 527 nM.

For `C[C@H]1CN(C[C@@H](Cc2ccccc2)C(=O)NCC(=O)O)CC[C@@]1(C)c1cccc(C(N)=O)c1.O=C(O)C(F)(F)F` [Example C-2, [[2(R)-[[4(R)-(3-Amidophenyl)-3(R),4-dimethyl-1-piperidinyl]methyl]-1-oxo-3-phenylpropyl]amino]acetic acid, trifluoromethylacetate salt, reference compound], the “times more potent than Example 1 as an MOR antagonist in the opioid receptor binding assay” value ([1]; C-2 versus Example 1, Table I) was 4.3 times, the Ki ([1]; read-out: MOR Ki) was 2.6 nM and the “DOR/MOR Ratio” value [1] was 33. The Ki [7, 9] was 660 nM, the “recovery of the pre-opioid treatment efficacy of GIT” value ([2]; mice) was 50% and the “AUC values (h * percent antagonism (0-6 h))” value ([2]; mouse, in vivo, po, 3 mg/kg) was 191.5 h * percent antagonism. The Ki ([3]; read-out: DOR Ki) was 85 nM and the “oral bioavailability (F)” value ([6]; single PO dose of 10 mg/kg) was about 1%.

With `CC1CN(CC(Cc2ccccc2)C(=O)NCC(=O)O)CCC1(C)c1cccc(C(N)=O)c1` [Example C-3, [[2(R)-[[4(R)-(3-Amidophenyl)-3(R),4-dimethyl-1-piperidinyl]methyl]-1-oxo-3-phenylpropyl]amino]acetic acid, sodium salt, reference compound] the Ki ([1]; MOR Ki) was 2.9 nM, the “DOR/MOR Ratio” value [1] was 34 and the Ki [7, 9] was 930 nM. It also gave a Ki ([3]; DOR Ki) of 98 nM, an AUC0-t ([4]; dog, plasma, po, PO 6 mg/kg, read-out: AUC0-t) of 81 ng·h/mL and a bioavailability ([4]; dog, plasma, dogs) of 11%. The AUC ([4]; dog, plasma, PO 6 mg/kg) was 63 ± 16 ng·h/mL, the AUC0-t ([4]; PO 6 mg/kg, sodium salt) was 54 ng·h/mL and 53 ng·h/mL and the Cmax ([5]; individual monkeys, PO 1 mg/kg, sodium salt) was 1.81 ng/mL and 1.74 ng/mL. The Cmax ([5]; monkey, plasma, po, individual monkeys, PO 1 mg/kg, read-out: Cmax) was 1.7 ng/mL, the Cmax ([5]; monkey, plasma, po, mean of three monkeys, PO 1 mg/kg, read-out: Mean Cmax ± SD) was 1.75 ± 0.06 ng/mL and the bioavailability ([5]; monkey, plasma, monkeys) was under 2%.

Reference: patent US20100311782A1, “SUBSTITUTED PIPERIDINYLPROPANOIC ACID COMPOUNDS AND METHODS OF THEIR USE” (priority 2009, published 2010)
